Assay results reported in patent publication US8846694B2, “Pyrrolidone derivatives for use as MetAP-2 inhibitors” (Merck Patent GmbH, priority 2008, dated 2014).
pIC50: −log10 of the molar value. In brackets after ≈: the same amount, converted by molar mass.

Tests used:
[1] = Shake flask solubility measurement; assay type: physicochemical; settings: shaken at 37° C. for 24 h; for solubility at 24 h: sodium phosphate/sodium chloride buffer, aqueous buffer, thermodynamic from solid
Description: Determination by Shake Flask Solubility Measurement
• Eluent A: 2 ml of diethylamine, for synthesis+1000 ml of methanol, LiChrosolv • Eluent B: 5 g of ammonium acetate, for analysis+5 ml of methanol, LiChrosolv+995 ml of ultrapure water Sample Solvent:
Buffer: 3.954 g of sodium dihydrogenphosphate monohydrate+6.024 g of sodium chloride+950 ml of ultrapure water the pH is adjusted using 0.1 M NaOH or 0.1 M HCl.
The samples are shaken at 37° C. and 450 rpm for 24 h.
After about 7 h, the pH of the samples is checked and adjusted if necessary. It is also checked whether the sample is still present in excess.
Just before the end of the 24 h shaking time, the samples are again checked for pH and a precipitate.

[2] = target: MetAP-2 (Homo sapiens, UniProt P50579); test: MetAP-2 activity measurement (coupled enzymatic reactions, substrate Met-Arg-Ser, photometric at 450 nm); assay type: biochemical; settings: read-out: IC50 enzyme (Inhibition of MetAP-2)
Sequence of MetAP-2 (P50579 whole entry, species assumed): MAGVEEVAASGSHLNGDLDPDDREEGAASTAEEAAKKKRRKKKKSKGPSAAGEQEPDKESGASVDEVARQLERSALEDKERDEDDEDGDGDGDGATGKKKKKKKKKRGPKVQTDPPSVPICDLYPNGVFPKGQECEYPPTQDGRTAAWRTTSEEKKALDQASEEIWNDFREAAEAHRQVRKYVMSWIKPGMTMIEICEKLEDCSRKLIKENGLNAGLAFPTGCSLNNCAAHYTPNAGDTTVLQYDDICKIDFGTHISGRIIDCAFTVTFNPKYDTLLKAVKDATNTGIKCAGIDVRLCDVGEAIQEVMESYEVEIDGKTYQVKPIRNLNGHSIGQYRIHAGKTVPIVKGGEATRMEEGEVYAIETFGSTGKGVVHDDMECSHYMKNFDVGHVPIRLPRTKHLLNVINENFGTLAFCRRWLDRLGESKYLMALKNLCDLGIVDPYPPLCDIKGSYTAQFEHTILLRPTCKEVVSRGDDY
In short: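 Human MetAP-2 cleaves Met-Arg-Ser; the freed methionine is oxidized by L-amino acid oxidase, and the resulting H2O2 drives peroxidase oxidation of dianisidine, read continuously at 450 nm. Activity is taken as the slope in the visually linear region.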

Q: For CC(O)CNC(=O)c1cc(OC[C@H]2CCCN2c2ncnc3[nH]cnc23)c2ccccc2n1 (stereo partly shown), which solubility ([1]; shake flask, buffer) is on record?
A: 325 µg/mL (≈ 726 µM)

Q: Which melting point does the source give for O=C(c1ccc(CCC2CCCN2c2ncnc3[nH]cnc23)c2ccccc12)N1CCOCC1 (racemic) [A6, morpholin-4-yl-(4-{2-[-1-(9H-purin-6-yl)pyrrolidin-2-yl]ethyl}naphthalen-1-yl)methanone] here?
A: 158 to 160 °C

Q: For Clc1cccc(OC[C@H]2CCCN2c2ncnc3[nH]cnc23)c1Cl [6-[(R)-2-(2,3-dichlorophenoxymethyl)pyrrolidin-yl]-9H-purine, reference compound], which solubility ([1]; shake flask, buffer) is on record?
A: < 1 µg/mL

Q: For c1ccc2c(OC[C@H]3CCCN3c3ncnc4[nH]cnc34)ccc(CNCCN3CCOCC3)c2c1 [(2-morpholin-4-ylethyl)-{4-[(R)-1-(9H-purin-6-yl)pyrrolidin-2-ylmethoxy]naphthalen-1-ylmethyl}amine], which solubility at 24 h ([1]; buffer system at pH 7) is on record?
A: 283 µg/mL (≈ 580 µM)

Q: Which results are given for O=Cc1ccc(OC[C@H]2CCCN2c2ncnc3[nH]cnc23)c2ccccc12 [A2, 4-[(R)-1-(9H-purin-6-yl)pyrrolidin-2-ylmethoxy]naphthalene-1-carbaldehyde]?
A: pIC50 [2]: 6.00 to 8.00; melting point: 167 to 168 °C

Q: With F[C@H]1C[C@H](COc2ccccc2Cl)N(c2ncnc3[nH]cnc23)C1 [A7, 6-[(2R,4S)-2-(2-chlorophenoxymethyl)-4-fluoropyrrolidin-1-yl]-9H-purine] as the molecule, how does the pIC50 [2] read?
A: 5.00 to 6.00

Q: And the melting point?
A: 143 to 144 °C

Q: With NCCCC[C@H](NC(=O)OCc1ccccc1)C(=O)N1CCc2cccc(OC[C@H]3CCCN3c3ncnc4[nH]cnc34)c2C1 [A199, Benzyl ((S)-5-amino-1-{8-[(R)-1-(9H-purin-6-yl)-pyrrolidin-2-ylmethoxy]-3,4-dihydro-1H-isoquinolin-2-carbonyl}pentyl)carbamate] as the molecule, how does the pIC50 [2] read?
A: 5.00 to 6.00

Q: With O=C(Cn1c(C(=O)NCCc2ccc(F)cc2)c(OC[C@H]2CCCN2c2ncnc3[nH]cnc23)c2cc(F)ccc21)NCCc1ccc(F)cc1 [A200, N-[2-(4-Fluorophenyl)ethyl]-5-fluoro-1-{[2-(4-fluorophenyl)ethylcarbamoyl]methyl}-3-[(R)-1-(9H-purin-6-yl)pyrrolidin-2-ylmethoxy]-1H-indole-2-carboxamide] as the molecule, how does the pIC50 [2] read?
A: < 5.00

Q: With NC(=O)C[C@H](N)C(=O)N1CCc2cccc(OC[C@H]3CCCN3c3ncnc4[nH]cnc34)c2C1 [A201, (S)-3-Amino-4-oxo-4-{8-[(R)-1-(9H-purin-6-yl)-pyrrolidin-2-ylmethoxy]-3,4-dihydro-1H-isoquinolin-2-yl}butyramide] as the molecule, how does the pIC50 [2] read?
A: 5.00 to 6.00

Q: With NC(=O)CCC(=O)N1CCc2cccc(OC[C@H]3CCCN3c3ncnc4[nH]cnc34)c2C1 [A202, 4-Oxo-4-{8-[(R)-1-(9H-purin-6-yl)pyrrolidin-2-yl-methoxy]-3,4-dihydro-1H-isoquinolin-2-yl}-butyramide] as the molecule, how does the pIC50 [2] read?
A: 5.00 to 6.00

Q: With Fc1ccc(CCNCCn2cc(OC[C@H]3CCCN3c3ncnc4[nH]cnc34)c3cc(F)ccc32)cc1 [A203, [2-(4-Fluorophenyl)ethyl]-(2-{5-fluoro-3-[(R)-1-(9H-purin-6-yl)pyrrolidin-2-ylmethoxy]indol-1-yl}-ethyl)amine] as the molecule, how does the pIC50 [2] read?
A: < 5.00

Q: With O=C(c1ccc(CC[C@H]2CCCN2c2ncnc3[nH]cnc23)c2ccccc12)N1CCOCC1 [Morpholin-4-yl-(4-{2-[(S)-1-(9H-purin-6-yl)pyrrolidin-2-yl]ethyl}naphthalen-1-yl)-methanone] as the molecule, how does the solubility at 24 h ([1]; shake flask, buffer) read?
A: 108 µg/mL (≈ 237 µM)

Q: For CNC(=O)/C=C1/CCc2c(OC[C@H]3CCCN3c3ncnc4[nH]cnc34)cccc2C1=O [N-methyl-2-[1-oxo-5-[(R)-1-(9H-purin-6-yl)pyrrolidin-2-ylmethoxy]-3,4-dihydro-1H-naphthalen-(2Z)-ylidene]acetamide], which solubility at 24 h ([1]; shake flask, buffer) is on record?
A: 29 µg/mL (≈ 67.1 µM)

Q: With O=C(O)/C=C1/CCc2c(OC[C@H]3CCCN3c3ncnc4[nH]cnc34)cccc2C1=O [[1-oxo-5-[(R)-1-(9H-purin-6-yl)pyrrolidin-2-ylmethoxy]-3,4-dihydro-1H-naphthalen-(2Z)-ylidene]acetic acid] as the molecule, how does the solubility at 24 h ([1]; shake flask, buffer) read?
A: > 3800 µg/mL
